# Key:
# [1] = Metabolic kinetics in mice after gavage (plasma level of intermediate II); format: in vivo
# Experimental: Metabolic kinetics of the compound a in mice: the compound a and the intermediate II were administered to mice respectively by gavage at a dose of 25 mg/kg each time and 12 mg/kg each time (equimolar concentration). Equal volume of blood samples were collected at the time points of 1, 3, 5, 9, 18 and 24 hours, and centrifuged immediately. 100 μL of supernatant (plasma) was got, added with 2-fold volume of acetonitrile immediately to extract the blood samples twice, and centrifuged at high speed (12,000 rpm) for 5 minutes. The level of the intermediate II in the organic phase was determined by HPLC, and the content of the compound fragments was detected by LC-MS. Pharmacokinetics was analyzed by Pharmacokinetics Solutions 2.0 software (Summit Research Services, Montrose, Colo., USA).
# A549 cells = assay: A549 transplanted tumors in nude mice, compound used alone; format: in vivo
# Experimental: Except cisplatin (intraperitoneal injection, once a week), all compounds were administered by gavage, once a day for 5 weeks continuously.
# HT-29 cells = assay: HT-29 transplanted tumors in nude mice, compound a in combination with doxorubicin; format: in vivo; details: Doxorubicin 2 mg/kg/week i.p. or compound a 3 mg/kg/day gavage, 4 weeks
# Experimental: Compound a was administered by gavage once a day for 4 weeks continuously; Doxorubicin was injected intraperitoneally once a week for 4 weeks. Body weight and tumor volume of animals were measured and calculated according to Example 9.
# [2] = tested on: colon cancer cells (SW480); details: SW480 tumors in nude mice
# Experimental: The experiment was carried out using compound a in this example. Under sterile conditions, a suspension of colon cancer cells (SW480) in logarithmic growth phase (cell concentration was adjusted to 1×10^7/mL with physiological saline) was inoculated subcutaneously to 5 to 6 weeks old balb/c female nude mice on the right rear back, and each nude mice was inoculated at an amount of 0.3 ml, i.e. the number of cells contained was 3×10^6 per each mouse. 10 days later, subcutaneous transplanted tumor of 100-250 mm^3 appeared. The nude mice with tumor were randomly divided into several groups, each containing 6 mice: (1) control group; (2) doxorubicin group; (3) doxorubicin+amifostine; (4) doxorubicin+Celecoxib+intermediate II; (5) doxorubicin+intermediate I+intermediate II; (6) doxorubicin+low-dose compound a (6 mg/kg/day); (7) doxorubicin+high-dose compound a (15 mg/kg/day). Firstly, the following compounds were administered to each group of nude mice with tumor according to the following doses: intermediate I and intermediate II (3 mg/kg/day respectively), amifostine (400 mg/kg/day), Celecoxib (6 mg/kg/day). Except that amifostine was subcutaneously injected (30 minutes before irradiation), the other protective agents were administered by gavage. The above drugs were administered every day for 5 weeks continuously. 12 hours after the administration, doxorubicin (2.5 mg/kg) was injected intraperitoneally, and it was administered once every 2 days for 5 weeks. During the dosing period, the body weight of the nude mice was measured every two days with a precision electronic balance. The growth of the tumor and whether or not red and swelling and rupture occur were observed every day after inoculation. After tumor formation, the surface morphology and activity of the transplanted tumor were examined, and the longest diameter (a) and the shortest diameter (b) of the tumor nodules were measured every 3 days with a vernier caliper. […] 21 days after administration of doxorubicin, the tail vein blood of mice was collected to perform leukocyte count and blood biochemical index analysis. The tumor tissue and normal peripheral tissues were taken on the last day of treatment, and the content of the intermediate I therein was measured by HPLC (FIG. 9a). At the same time, paraffin sections were made, the occurrence of apoptosis was detected by terminal labeling (FIG. 9b), and the relative survival percentages of normal tissue and tumor tissue were calculated (the results are summarized in FIG. 9b).
# mice (C57BL/6J) = assay: Survival rate of mice irradiated by γ-rays; format: in vivo; details: 30th day after 8.75 Gy γ-rays, 16 mice per group; for number of survived mice: intermediates each 3 mg/kg/day gavage; for survival rate: compounds 6 mg/kg/day gavage, amifostine 400 mg/kg/day i.p.
# Experimental: In this experiment, 10-week-old male mice (C57BL/6J) weighing about 20 g were used as subjects, and 16 mice were taken as a group. The mice were divided into the following groups: 1. no γ-ray+no drug; 2. γ-ray+no drug; 3. γ-ray+amifostine; 4. γ-ray+intermediate I+intermediate II; 5. γ-ray+compound a; 6. γ-ray+compound b; and 7. γ-ray+compound d. Firstly, each group of mice was administered with a protective agent, and the specific amounts were as follows: compound a, b and d: 6 mg/kg/day (8.1 μM), amifostine: 400 mg/kg/day (1.5 mM), intermediate I+Intermediate II: each 3 mg/kg/day (8.1 μM). Except that amifostine was intraperitoneally injected (30 minutes before irradiation, amifostine was administered), the other protective agents were administered by gavage. 12 hours after administration, systemic irradiation was performed using cobalt 60γ-rays at a dose of 8.75Gy and a dose rate of 0.35 Gy/min for 25 minutes, with the radiation source 80 cm away from the mice. The mice were irradiated once, and continuously administered with drugs once daily for 10 days after irradiation. The number of survival mice was recorded. The percentage obtained by dividing the number of survival mice by the total number of mice in the experimental group (16 mice) is survival rate of mice, and the results are summarized in FIG. 7. […] It is noteworthy that in the experimental group using intermediate I+intermediate II, only one mouse is survived.
# [3] = Content of active components in tumor tissue and normal peripheral tissue (HPLC); format: in vivo; details: last day of treatment
# Experimental: The experiment was carried out using compound a in this example. Under sterile conditions, a suspension of colon cancer cells (SW480) in logarithmic growth phase (cell concentration was adjusted to 1×10^7/mL with physiological saline) was inoculated subcutaneously to 5 to 6 weeks old balb/c female nude mice on the right rear back, and each nude mice was inoculated at an amount of 0.3 ml, i.e. the number of cells contained was 3×10^6 per each mouse. 10 days later, subcutaneous transplanted tumor of 100-250 mm^3 appeared. […] During the dosing period, the body weight of the nude mice was measured every two days with a precision electronic balance. […] After tumor formation, the surface morphology and activity of the transplanted tumor were examined, and the longest diameter (a) and the shortest diameter (b) of the tumor nodules were measured every 3 days with a vernier caliper. […] The tumor tissue and normal peripheral tissues were taken on the last day of treatment, and the content of the intermediate I therein was measured by HPLC (FIG. 9a). At the same time, paraffin sections were made, the occurrence of apoptosis was detected by terminal labeling (FIG. 9b), and the relative survival percentages of normal tissue and tumor tissue were calculated (the results are summarized in FIG. 9b).
# [4] = Degradation of the compound in plasma (10% bovine serum medium, HPLC); format: in vitro ADME; details: 10 μM, 37° C., within 24 hours
# Experimental: Determination of the stability of the compound: (1) degradation of the compound in plasma: Compound a (10 μM) dissolved in DMSO was cultured with 10% bovine serum medium (5 mL) at 37° C. 200 μL of medium was collected at the time points of 1, 3, 6, 12 and 24 hours, respectively, added with equal volume of acetonitrile for reaction, and subjected to high speed centrifugation (13,000 rpm) for 5 minutes. The level of degradation of the compound was determined by HPLC. (2) Degradation of the compound in cells: the compound a dissolved in DMSO was added at a final concentration of 10 μM to a 6-well culture dish containing SW480 cells and incubated in carbon dioxide incubator. The cells were collected at the time points of 1, 3, 6, 12, and 24 hours, respectively, washed fully, then extracted with 0.5 mL of acetonitrile, and centrifuged at high speed (12,000 rpm) for 5 minutes. The level of degradation of the compound in the organic phase was determined by HPLC.
# [5] = gavage, compound a 25 mg/kg, intermediate II 12 mg/kg (equimolar), intermediate II measured in plasma
Structure (SMILES),"content of intermediate II in plasma, versus mice given intermediate II ([1]; gavage 25 mg/kg)",metabolites in plasma ([1]; gavage 25 mg/kg),"AUC0 [1, 5]","Cmax [1, 5]","T1/2 [1, 5]","Tmax [1, 5]","inhibition of tumors (A549 cells; A549, high-dose compound a (25 mg/kg/day) gavage, 5 weeks)","inhibitory effect on the tumor (A549 cells; A549, cisplatin 5 mg/kg/week i.p., compound a 5 and 25 mg/kg/day, intermediates 12.5 mg/kg/day each)","body weights of the animals (A549 cells; A549, high dose, during administration)","inhibition of the tumor, administered alone (HT-29 cells)","effect on tumor / on sensitivity of tumor to doxorubicin ([2]; doxorubicin 2.5 mg/kg i.p. every 2 days for 5 weeks, agents daily)","death of animals during treatment ([2]; doxorubicin 2.5 mg/kg i.p., 6 mice per group)",protection of normal tissue and cells from doxorubicin ([2]; with doxorubicin),number of survived mice (mice (C57BL/6J)),survival rate (mice (C57BL/6J)),content of active components in tumor tissues versus peripheral normal tissues [3],compound hydrolyzed in bovine serum [4]
COC1=C(OC)C(=O)C(CCCCCCCCCCOC(=O)Cc2c(C)n(C(=O)c3ccc(Cl)cc3)c3cc(OC)ccc23)=C(C)C1=O [compound a],significantly higher,significantly reduced,63.2 µg·h/mL,19.8 µg/mL,7.6 h,5 h,≥ 60%,dose-dependent inhibitory effect against tumor,not significantly reduced,only slightly inhibited,significantly enhance the sensitivity of tumor cells to chemotherapy,No death occurs,"effective in inhibiting the killing effect of Doxorubicin on normal leukocytes, cardiomyocytes and peripheral normal tissues around the tumor",10 mice,62.5%,evidently higher,11%
COc1ccc2c(CC(=O)OCCCCCCCCCCc3c(C)c(O)c(OC)c(OC)c3O)c(C)n(C(=O)c3ccc(Cl)cc3)c2c1 [compound b],,,,,,,,,,,,,,12 mice,75%,,

# Source: patent US10494341B2, “Compound containing indoleacetic acid core structure and use thereof” (Beijing An Jian Xi Bio-Medical Technology Co., Ltd., priority 2015, dated 2019)
